Consider 66 sequences from the OligoGym collection.

Several values for one entry are separate records, joined by “and”; a condition that tells them apart may be missing. Equal values may be shown once. After the bases stand the sugars from the 5' end (letter, count) and the backbone: PS all phosphorothioate, else s phosphorothioate and o phosphodiester by linkage. Methylation of C is not given here. e = 2'-O-(2-methoxyethyl) (MOE); k = constrained ethyl (cEt); d = 2'-deoxy (DNA); m = 2'-O-methyl

The target in the first series is HSD17B13. The conditions noted are these: ASO, HepaRG, 0.02 µM.
Turning to TTTGAACCGTATTCCC (sugars k3 d10 k3, PS), the target mRNA inhibition stood at 36%.

Staying with this series, now noted: ASO, HepaRG, 0.078 µM.
Turning to TTTGAACCGTATTCCC (sugars k3 d10 k3, PS), the target mRNA inhibition amounted to 41%.

The series is the same for the next values; noted with them: ASO, HepaRG, 0.313 µM.
As to TTTGAACCGTATTCCC (sugars k3 d10 k3, PS), the target mRNA inhibition came to 57%.

The same series, now with this note: ASO, HepaRG, 1 µM.
TTTACTCACTTCTGGT (sugars k3 d10 k3, PS): the target mRNA inhibition was found to be 30%.

As for TTTACTGGGATACTAT (sugars k3 d10 k3, PS), the target mRNA inhibition came out at 25%.

Take TTTAGAGAGCGATAGA (sugars k3 d10 k3, PS): the target mRNA inhibition worked out at 13%.

TTTAGCAGCTTGGAAG (sugars k3 d10 k3, PS): the target mRNA inhibition worked out at 43%.

On to TTTAGGATTAATTCCC (sugars k3 d10 k3, PS), for which the target mRNA inhibition was determined as 16%.

TTTAGGGCAAACCTTG (sugars k3 d10 k3, PS): the target mRNA inhibition was determined as 67%.

For the sequence TTTCATAGGGAGACCA (sugars k3 d10 k3, PS), the target mRNA inhibition worked out at 71%.

Take “TTTCTTATGTAATAGC (sugars k3 d9 k3 e1, PS)”: the target mRNA inhibition worked out at 60%.

As to “TTTCTTATGTAATAGC (sugars kkdddddddddkekek, PS)”, the target mRNA inhibition amounted to 60%.

On to “TTTCUTATGTAATAGC (sugars k3 d1 m1 d8 k3, PS)”, for which the target mRNA inhibition amounted to 50%.

For TTTGAACCGTATTCCC (sugars k3 d10 k3, PS), the target mRNA inhibition is 69%.

Take TTTGACTGCTGCTAGT (sugars k3 d10 k3, PS): the target mRNA inhibition amounted to 21%.

In the case of TTTGAGCCTAAAATTG (sugars k3 d10 k3, PS), the target mRNA inhibition stood at 26%.

The series is the same for the next values; noted with them: ASO, HepaRG, 1.25 µM.
Take TTTGAACCGTATTCCC (sugars k3 d10 k3, PS): the target mRNA inhibition amounted to 79%.

The series is the same for the next values; noted with them: ASO, HepaRG, 5 µM.
As for TTTGAACCGTATTCCC (sugars k3 d10 k3, PS), the target mRNA inhibition is 85%.

Another series concerns the target IRF4. The conditions noted are these: ASO, MM.1R, 0.0625 µM.
With “AAGCAGTGATGTCAGG (sugars kkddddddddddkeke, PS)”, the target mRNA inhibition came to 8%.

The series is the same for the next values; noted with them: ASO, MM.1R, 0.25 µM.
“AAGCAGTGATGTCAGG (sugars kkddddddddddkeke, PS)”: the target mRNA inhibition stood at 22%.

The same series, now with this note: ASO, MM.1R, 1 µM.
Regarding AAACGGCCTGGAGGTG (sugars k3 d10 k3, PS), the target mRNA inhibition amounted to 11%.

For AAAGAGTGGTACACCT (sugars k3 d10 k3, PS), the target mRNA inhibition came out at 10%.

On to AACGACAAGTGGCGCA (sugars k3 d10 k3, PS), for which the target mRNA inhibition came to 12%.

AACGACTCCACAGAGC (sugars k3 d10 k3, PS): the target mRNA inhibition came out at 4%.

As to AACGGCCTGGAGGTGA (sugars k3 d10 k3, PS), the target mRNA inhibition came out at 1%.

As to AACTAGCAGGGCACGC (sugars k3 d10 k3, PS), the target mRNA inhibition is 2%.

With “AAGCAGTGATGTCAGG (sugars kkddddddddddkeke, PS)”, the target mRNA inhibition is 74% and 76% and 56%.

As to “AAGCAGTGATGTCAGG (sugars kkdddddddddekeke, PS)”, the target mRNA inhibition was determined as 65%.

With “AAGCAGTGATGTCAGG (sugars kkdddddddddkekek, PS)”, the target mRNA inhibition was 43% and 44%.

On to “AAGCATTTTATCATCC (sugars k2 d9 e3 k2, PS)”, for which the target mRNA inhibition turned out to be 21%.

For the sequence “AAGCATTTTATCATCC (sugars k3 d9 k3 e1, PS)”, the target mRNA inhibition was 33%.

Regarding “AAGCATTTTATCATCC (sugars kkddddddddddkeke, PS)”, the target mRNA inhibition was determined as 20%.

Take AAGCCTAGAGGTGCCT (sugars k3 d10 k3, PS): the target mRNA inhibition was 29%.

Consider “AAGCTTGATAAAGGCT (sugars e1 k2 d9 k2 e2, PS)”, for which the target mRNA inhibition was -1%.

“AAGCTTGATAAAGGCT (sugars k3 d9 k3 e1, PS)”: the target mRNA inhibition worked out at 5%.

For the sequence “AAGCTTGATAAAGGCT (sugars kkdddddddddekeke, PS)”, the target mRNA inhibition was 38%.

As to “AAGCTTGATAAAGGCT (sugars kkdddddddddkdkdk, PS)”, the target mRNA inhibition was -2%.

With “AAGCTTGATAAAGGCT (sugars kkdddddddddkekek, PS)”, the target mRNA inhibition is -19%.

Take “AAGCTTGATAAAGGCT (sugars kkkddddddddkekek, PS)”: the target mRNA inhibition was -4%.

As for AAGGTCTGAGTTGTAC (sugars k3 d10 k3, PS), the target mRNA inhibition came out at 20%.

In the case of “AAGTGTCTAAAGTCCC (sugars k2 d9 e3 k2, PS)”, the target mRNA inhibition was 21% and 46%.

As for AAGTGTCTAAAGTCCC (sugars k3 d10 k3, PS), the target mRNA inhibition was 50% and 41%.

As for “AAGTGTCTAAAGTCCC (sugars kdddddddddkekeke, PS)”, the target mRNA inhibition was 4% and 5%.

In the case of “AAGTTCATGTAAAGTC (sugars kkdddddddddekeke, PS)”, the target mRNA inhibition is 34% and 29%.

Consider “AAGTTCATGTAAAGTC (sugars kkdddddddddkdkdk, PS)”, for which the target mRNA inhibition was 32% and 34%.

Staying with this series, now noted: ASO, MM.1R, 4 µM.
Turning to “AAGCAGTGATGTCAGG (sugars kkddddddddddkeke, PS)”, the target mRNA inhibition worked out at 87%.

The series is the same for the next values; noted with them: ASO, SK-MEL-28, 4 µM.
Take AAAAATATAACGGTGT (sugars k3 d10 k3, PS): the target mRNA inhibition is 24%.

In the case of AAAACTACTATTGTGG (sugars k3 d10 k3, PS), the target mRNA inhibition is 14%.

Consider AAAAGTAACTGACACG (sugars k3 d10 k3, PS), for which the target mRNA inhibition was found to be 61%.

As to AAACAGCCCACTGAGT (sugars k3 d10 k3, PS), the target mRNA inhibition was found to be 11%.

Take AAACGACAAGTGGCGC (sugars k3 d10 k3, PS): the target mRNA inhibition came to 21%.

In the case of AAAGACAAGTGCCCAT (sugars k3 d10 k3, PS), the target mRNA inhibition worked out at 24%.

Take AAATATACCAGCTCAA (sugars k3 d10 k3, PS): the target mRNA inhibition came out at 25%.

Consider AAATATCGCCCATGAG (sugars k3 d10 k3, PS), for which the target mRNA inhibition is 39%.

Turning to AAATCTTCAACAGCAC (sugars k3 d10 k3, PS), the target mRNA inhibition was 45%.

As to AACAAACAGAGGAGCG (sugars k3 d10 k3, PS), the target mRNA inhibition was 16%.

AACACTTGGAGAAGTC (sugars k3 d10 k3, PS): the target mRNA inhibition was 43%.

Regarding AACCAGCACAGTTCTC (sugars k3 d10 k3, PS), the target mRNA inhibition was -18%.

Consider AACCATGTTCCTGAAG (sugars k3 d10 k3, PS), for which the target mRNA inhibition worked out at 41%.

On to AACCATTACTTAGACA (sugars k3 d10 k3, PS), for which the target mRNA inhibition turned out to be 45%.

As to AACTATAATTGGCACG (sugars k3 d10 k3, PS), the target mRNA inhibition was 73% and 59%.

AACTCTCCTGTTTTCG (sugars k3 d10 k3, PS): the target mRNA inhibition turned out to be 42%.

With AACTGAGAGTGCGAGG (sugars k3 d10 k3, PS), the target mRNA inhibition came to 1%.

Consider AAGAAACGAGTTGACA (sugars k3 d10 k3, PS), for which the target mRNA inhibition was 22%.

For AAGAAGCAAGTCGGTC (sugars k3 d10 k3, PS), the target mRNA inhibition turned out to be 55%.

Take AAGAAGCACTGGCATT (sugars k3 d10 k3, PS): the target mRNA inhibition stood at 22%.

For AAGAGGCGACTGCTGA (sugars k3 d10 k3, PS), the target mRNA inhibition is 35%.

Consider AAGCAAGTGTCTAAAG (sugars k3 d10 k3, PS), for which the target mRNA inhibition worked out at 29%.

Consider AAGCAGTCATCACTCT (sugars k3 d10 k3, PS), for which the target mRNA inhibition was 38%.

For AAGCATCCTTTCCTAC (sugars k3 d10 k3, PS), the target mRNA inhibition stood at 35%.

In the case of AAGCGCACCGCAGGCG (sugars k3 d10 k3, PS), the target mRNA inhibition turned out to be 4%.

For the sequence AAGGAGTGCAGGAGAG (sugars k3 d10 k3, PS), the target mRNA inhibition amounted to 13%.

Turning to AAGGTTCCTGTCACCT (sugars k3 d10 k3, PS), the target mRNA inhibition was -2%.

On to AAGTGGAGGTCTTTGG (sugars k3 d10 k3, PS), for which the target mRNA inhibition amounted to 66%.
